Data on 25 molecules can be found in patent US20050065213A1 (priority 2001, published 2005).

Data set [1] relates to tubulin. Nature of the data set: Tubulin assembly inhibition assay. The class given is biochemical.
Data set [2] relates to tubulin. Nature of the data set: Colchicine competition assay. It is filed as binding. From the text: The compounds have been further tested for their performance in colchicine competition assays, and the results tabulated in Tables 9 to 13.
A further data set has as its system K562 cell line. Briefly: Cytotoxicity (IC50) assay against the K562 cell line. The following applies: for activity (in words): cytotoxicity, qualitative statements; for IC50: Homo sapiens, K562 cell line, read-out: IC50 values in the cytotoxicity tests. The class given is cell-based. On the procedure: Compounds based on the aurone structure were prepared as conformationally restricted analogues of the chalcones. They were prepared from the appropriate benzofuranone.

Data set [3] concerns H460 human non small cell lung cells. Briefly: H460 xenograft in nude mice. The class given is in vivo.
The next data set concerns H460 xenograft. Nature of the data set: H460 xenograft mice, X-Rays plus drug. The following applies: X-Ray plus drug treated group, FIG. 6. The class given is in vivo. The source says:
Whilst X-Ray treatment was effective immediately after treatment, fresh tumour growth became evident by 36 days.

The nature of data set [4]: Flow cytometry, percentage of cells in the phases of the cell cycle. As to conditions: for % Cells G2-M: control 12.08; for % Cells S-phase: control 32.87; for % Cells G0-G1: control 55.05. It is filed as cell-based. From the text:
Tables 14 and 15 show the results of tubulin assembly assays and flow cytometry studies on selected compounds of the present invention.

Data set [5] has as its system P388 murine leukaemia cell line. The following applies: cell line not stated for this statement; cited from earlier work.
Where [6] appears, read: tubulin assembly, corrected values scaled by a factor of 5, read-out: IC50 μM (corrected).
Where [7] appears, read: tubulin assembly, original experimental value, read-out: IC50 μM (original).
[8] abbreviates: tubulin assembly assay, Table 14, read-out: IC(TA)50.

Read-outs that look alike come from different tables or passages of the source. Where only a bound is given, the exact number is not on record here.

`COc1ccc(/C=C(\C)C(=O)c2cc(OC)c(OC)c(OC)c2)cc1F` [DR5, (E)-3-(3″-Fluoro-4″-methoxyphenyl)-2-methyl-1-(3′,4′,5′-trimethoxyphenyl)-2-propen-1-one]: the IC50 in the data set on tubulin [1] (setting [6]) is 3.5 µM; in the data set with tubulin [1] (setting [7]), 0.7 µM. Besides, the “Colchicine competition, Drug:Protein Ratio 1:1” value in the data set with tubulin [2] is on record as 14. Besides, in the data set with tubulin [2], the “Colchicine competition, Drug:Protein Ratio 10:1” value came to 6. Further, the “activity (in words)” value in the data set on K562 cell line is on record as “most active fluorinated analogue”. The necrosis in tumour entry in data set [3] (24 hours after treatment with 0.75 MTD) is given as “necrosis in H460 cancer cells”. The “adverse side effects on healthy surrounding tissue” value in data set [3] (H460 xenograft nude mice) is listed as “no adverse side effects on healthy surrounding tissue”. Further, the “tumour volume / potency with concomitant X-Rays” value was “some initial increase in tumour volume between days 27 and 32, though this was followed by subsequent decrease to a steady baseline at day 34” with H460 xenograft; “Further improvement in the potency” in the data set on H460 xenograft (listed as DRA 212).

`COc1ccc(/C=C(\C)C(=O)c2cc(OC)c(OC)c(OC)c2)cc1OP(=O)([O-])[O-].[Na+].[Na+]` [SD174b, Disodium 3′-phosphate salt of (E)-1-(3′-Hydroxy-4′-methoxyphenyl)-2-methyl-3-(3″,4″,5″-trimethoxyphenyl)prop-1-en-3-one]: the “activity (in words)” value with K562 cell line is listed as “potently active”.

On to `CO/C(=C\c1cc(F)c(OC)c(F)c1)C(=O)c1cc(OC)c(OC)c(OC)c1` [DR15, (Z)-3-(3″,5″-Difluoro-4″-methoxyphenyl)-2-methoxy-1-(3′,4′,5′-trimethoxyphenyl)-2-propen-1-one], for which the IC50 in the data set with tubulin [1] (setting [6]) is 8.5 µM; with tubulin [1] (setting [7]), 1.7 µM. Besides, the “Colchicine competition, Drug:Protein Ratio 1:1” value with tubulin [2] was 59. Also, the “Colchicine competition, Drug:Protein Ratio 10:1” value in the data set with tubulin [2] is reported as 41.

Regarding `COc1ccc(-c2cc(=O)c3c(OC)c(OC)c(OC)cc3o2)cc1O` [DR33, 2-(3′-Hydroxy-4′-methoxyphenyl)-5,6,7-trimethoxy-4H-chromen-4-one], the IC50 in the data set on tubulin [1] (setting [6]) is greater than 100 µM; in the data set on tubulin [1] (setting [7]), greater than 50 µM.

Take `COc1ccc(/C=C\c2cc(OC)c(OC)c(OC)c2)cc1O` [combretastatin A-4, cis-combretastatin A-4, reference compound]: the values for the IC50 with tubulin [1] (setting [6]) and in the data set on tubulin [1] (setting [7]) were […] and […], respectively.

On to `COc1ccc(C=C2Oc3cc(OC)c(OC)c(OC)c3C2=O)cc1O` [DR23], for which the results for the IC50 in the data set on tubulin [1] (setting [6]) and in the data set with tubulin [1] (setting [7]) were greater than 100 µM and greater than 50 µM, respectively.

On to `COc1cc(C(=O)/C(C)=C/c2cc(F)c(OC)c(F)c2)cc(OC)c1OC` [DR6, (E)-3-(3″, 5″-Difluoro-4″-methoxyphenyl)-2-methyl-1-(3′, 4′,5′-trimethoxyphenyl)-2-propen-1-one], for which, in the data set with tubulin [1] (setting [6]), the IC50 stood at 12 µM. Besides, the IC50 with tubulin [1] (setting [7]) worked out at 2.4 µM. Besides, in the data set with tubulin [2], the “Colchicine competition, Drug:Protein Ratio 1:1” value is reported as 33 and the “Colchicine competition, Drug:Protein Ratio 10:1” value stood at 25.

Regarding `COc1ccc(C=C2Oc3c(cc(OC)c(OC)c3OC)C2=O)cc1F` [DR28], the IC50 was greater than 100 µM with tubulin [1] (setting [6]), greater than 50 µM with tubulin [1] (setting [7]) and 0.11 µM in the data set on K562 cell line.

The molecule `CO/C(=C\c1ccc(OC)c(O)c1)C(=O)c1cc(OC)c(OC)c(OC)c1` [DR13, (Z)-3-(3″-Hydroxy-4″-methoxyphenyl)-2-methoxy-1-(3′,4′,5′-timethoxyphenyl)-2-propen-1-one] displayed a melting point of 120 to 122 °C. Further, the IC50 with tubulin [1] (setting [6]) worked out at 2.6 µM. Moreover, the IC50 in the data set on tubulin [1] (setting [7]) is 0.51 µM. Further, in the data set with tubulin [2], the “Colchicine competition, Drug:Protein Ratio 1:1” value turned out to be 12 and the “Colchicine competition, Drug:Protein Ratio 10:1” value is 5.

Regarding `COc1ccc(C2CC(=O)c3cc(OC)c(OC)c(OC)c32)cc1F` (stereo not drawn) [DR59], the IC50 in the data set with tubulin [1] (setting [6]) amounted to 20 µM. Also, the IC50 in the data set with tubulin [1] (setting [7]) stood at 4 µM. In the data set on tubulin [2], the “Colchicine competition, Drug:Protein Ratio 1:1” value is 100 and the “Colchicine competition, Drug:Protein Ratio 10:1” value is recorded as 61.

As to `COc1ccc(C2CC(O)c3cc(OC)c(OC)c(OC)c32)cc1F` (stereo not drawn) [DR60], the IC50 was greater than 100 µM in the data set on tubulin [1] (setting [6]) and greater than 50 µM in the data set with tubulin [1] (setting [7]).

As to `COc1ccc(-c2cc(=O)c3cc(OC)c(OC)c(OC)c3o2)cc1O` [DR36, 2-(3′-Hydroxy-4′-methoxyphenyl)-6,7,8-trimethoxy-4H-chromen-4-one], the melting point is 199 to 200 °C. Moreover, the IC50 with tubulin [1] (setting [6]) was greater than 100 µM. In addition, the IC50 in the data set on tubulin [1] (setting [7]) amounted to 25 µM. For the same molecule, in the data set with tubulin [2], the “Colchicine competition, Drug:Protein Ratio 1:1” value turned out to be 100 and the “Colchicine competition, Drug:Protein Ratio 10:1” value came out at 43.

As to `COc1ccc(/C=C2\Oc3c(cc(OC)c(OC)c3OC)C2=O)cc1O` [DR27, 2-[(Z)-(3′-Hydroxy-4′-methoxyphenyl)methylidene]-5,6,7-trimethoxy-1-benzofuran-3-one], the melting point lay within 192 to 193 °C. Besides, the IC50 in the data set with tubulin [1] (setting [6]) was greater than 100 µM. Also, the IC50 with tubulin [1] (setting [7]) is 22 µM. Also, in the data set with tubulin [2], the “Colchicine competition, Drug:Protein Ratio 1:1” value stood at 78 and the “Colchicine competition, Drug:Protein Ratio 10:1” value came to 59. In the data set on K562 cell line, the IC50 was found to be 0.05 µM.

In the case of `COc1ccc(/C=C/C(=O)c2cc(OC)c(OC)c(OC)c2)cc1OP(=O)([O-])[O-].[Na+].[Na+]` [SD174a, Disodium 3′-phosphate salt of (E)-1-(3′-Hydroxy-4′-methoxyphenyl)-3-(3″,4″,5″-trimethoxyphenyl)prop-1-en-3-one], the “activity (in words)” value in the data set on K562 cell line is reported as “potently active”.

As for `COc1ccc(C=CC(=O)c2ccc(OC)c(OC)c2OC)cc1O` [DR8, (E)-3-(3″-Hydroxy-4″-methoxyphenyl)-1-(2′,3′,4′-trimethoxyphenyl)-2-propen-1-one], the melting point fell in the range of 85 to 86 °C. Besides, in the data set with tubulin [1] (setting [6]), the IC50 was 2.3 µM. Also, the IC50 with tubulin [1] (setting [7]) amounted to 0.45 µM.

Regarding `COc1ccc(/C=C(\C)C(=O)c2cc(OC)c(OC)c(OC)c2)cc1[N+](=O)[O-]` [MW68], in the data set on tubulin [1] (setting [8]), the IC50 was greater than 10 µM. In addition, in data set [4], the “% Cells Debris” value was 11.27%, the “% Cells G2-M” value stood at 28.29%, the “% Cells S-phase” value was 35.36% and the “% Cells G0-G1” value amounted to 36.35%.

As for `COc1ccc(CC(C)C(=O)c2cc(OC)c(OC)c(OC)c2)cc1O` (stereo not drawn) [MW71], the IC50 with tubulin [1] (setting [8]) stood at 4 µM. Further, in data set [4], the “% Cells Debris” value was 19.31%, the “% Cells G2-M” value was 28.08%, the “% Cells S-phase” value is reported as 36.09% and the “% Cells G0-G1” value turned out to be 35.84%.

Take `COc1ccc(/C=C(\C)C(O)c2cc(OC)c(OC)c(OC)c2)cc1O` (stereo not drawn) [MW70]: in the data set on tubulin [1] (setting [8]), the IC50 is greater than 10 µM. Besides, in data set [4], the “% Cells Debris” value is listed as 15.27%, the “% Cells G2-M” value turned out to be 23.70%, the “% Cells S-phase” value is on record as 32.80% and the “% Cells G0-G1” value is 43.50%.

Turning to `COc1ccc(C=C2Oc3cc(OC)c(OC)c(OC)c3C2=O)cc1F` [DR24], the IC50 with tubulin [1] (setting [6]) is greater than 100 µM; in the data set on tubulin [1] (setting [7]) it was greater than 50 µM.

Regarding `COc1ccc(/C=C/C(=O)c2cc(OC)c(OC)c(OC)c2)cc1N` [MW65, (E)-3-(3″-Amino-4″-methoxyphenyl)-1-(3′,4′,5′-trimethoxyphenyl)-2-propen-1-one], the melting point lay within 90 to 91 °C. Moreover, in data set [4], the “% Cells Debris” value was 14.10%, the “% Cells G2-M” value worked out at 18.52%, the “% Cells S-phase” value came to 33.18% and the “% Cells G0-G1” value is given as 48.30%.

For the molecule `COc1ccc(C2CCc3cc(OC)c(OC)c(OC)c32)cc1N` (stereo not drawn) [MW82], the IC50 with tubulin [1] (setting [8]) is greater than 10 µM. Also, in data set [4], the “% Cells Debris” value was 18.58%, the “% Cells G2-M” value turned out to be 23.34%, the “% Cells S-phase” value was determined as 36.26% and the “% Cells G0-G1” value worked out at 40.40%.

Regarding `CO/C(=C\c1ccc(OC)c(F)c1)C(=O)c1cc(OC)c(OC)c(OC)c1` [DR14, (Z)-3-(3″-Fluoro-4″-methoxyphenyl)-2-methoxy-1-(3′,4′,5′-trimethoxyphenyl)-2-propen-1-one], the melting point fell in the range of 110 to 112 °C. Besides, in the data set on tubulin [1] (setting [6]), the IC50 was found to be 2.4 µM. Further, in the data set on tubulin [1] (setting [7]), the IC50 stood at 0.47 µM. Further, in the data set with tubulin [2], the “Colchicine competition, Drug:Protein Ratio 1:1” value was 22 and the “Colchicine competition, Drug:Protein Ratio 10:1” value came out at 8.

Turning to `COc1ccc(C2CC(=O)c3cc(OC)c(OC)c(OC)c32)cc1N` (stereo not drawn) [MW74, 3-(3′-Amino-4′-methoxyphenyl)-4,5,6-trimethoxy-1-indanone], the IC50 in the data set on tubulin [1] (setting [8]) was roughly 10 µM. Besides, in data set [4], the “% Cells Debris” value turned out to be 12.72%, the “% Cells G2-M” value came to 29.10%, the “% Cells S-phase” value was determined as 33.76% and the “% Cells G0-G1” value is given as 37.14%.

Turning to `COc1cc2c(c(OC)c1OC)OC(=Cc1ccc(O)c(O)c1)C2=O` [DR31], the IC50 was greater than 100 µM in the data set on tubulin [1] (setting [6]) and greater than 50 µM in the data set with tubulin [1] (setting [7]).

Take `COc1ccc(/C=C/c2cc(OC)c(OC)c(OC)c2)cc1O` [trans-combretastatin A-4]: in data set [5], the “cell growth inhibition (in words)” value is “μM range”.
